Experimental data taken from patent US20200010910A1, “Cytotoxic Chemotherapy-Based Predictive Assays for Acute Myeloid Leukemia” (The Regents of The University of California, priority 2017, published 2020).

Assays:
Type in all cases: cell-based
[1] = test system: A2780 and A2780ADR ovarian cancer cell lines; assay: doxorubicin-DNA adducts by AMS; conditions: 10 nM or 100 nM DOX 4 h, then 20 hr drug-free
Method: In order to assess the formation and loss of intracellular doxorubicin-DNA adducts, ovarian cancer cells were treated with Dox in culture. For doxorubicin-treated cells, one million ovarian cancer cells were seeded in 60-mm dishes the day before treatment and allowed to attach overnight. Similar to the ARA-C bolus protocol, the ovarian cancer cell lines were treated with a low (10 nM) or a high (100 nM) dose of unlabeled DOX supplemented with 0.8 nM of ^14C-labeled DOX (100 dpm/mL, 0.39-3.7 mCi/mmol specific activity (American Radiolabeled Chemicals, Inc.) for 4 h followed by an additional 20 hr of culturing in drug-free media (FIG. 25C). At 24 hrs, the cells were pelleted and washed. DNA was then isolated from these cells using the Qiamp DNA Blood Kit followed by two phenol and one chloroform extractions to remove intercalated DOX according to a published protocol (19). This protocol left intact covalent DOX-DNA adducts that are known to be formed as a consequence of DOX metabolism. Removal of intercalated DOX is important, since it is noncovalently bound and would otherwise partially diffuse out from the DNA sample causing variable results. Ten micrograms of DNA from each sample was converted to graphite and the ratios of ^14C to total C were measured by AMS. AMS was performed on triplicate DNA samples and the results were converted to drug-DNA adducts per ten million nucleotides.

[2] = test system: A2780ADR; assay: CellTiter 96 Aqueous cell proliferation assay; conditions: A2780 ADR, 72 hr continuous treatment
Source text: (§1) Correlation of IC50 to the AML induction drugs Dox and Ara-C were first performed with the adherent bladder cancer cell lines 5637 and 5637R for cytarabine and with the adherent ovarian cancer cell lines A2780 and A2780ADR for doxorubicin. Cell lines 5637 and 5637R (Ara-C resistant) have been described previously (20). A2780 and A2780ADR (doxorubicin resistant) were purchased from Sigma-Aldrich and grown as recommended. IC50 values were obtained by plating 4000 cells per well in 96-well plates the night before treatment, and then allowing the cells to adhere over night. Leukemia cell lines capable of continuous proliferation in suspension and having differential sensitivities to Dox and Ara-C were also obtained for correlation analysis. MV-4-11 (acute monocytic leukemia) and THP-1 (acute monocytic leukemia) human cell lines were purchased from American Type Culture Collection (ATCC, Manassas, Va.). MOLM-13 (acute myeloid leukemia) human cells were purchased from AddexBio (San Diego, Calif.). For leukemia cell lines (suspension cultures), approximately 8,000-11,000 cells were seeded per well in 96-well plates the day of treatment. MV-4-11 cells were grown in IMDM (Iscove's Modified Dulbecco's Media) with 10% FBS, 100 U/ml penicillin, and 100 μg/ml streptomycin. THP-1, A2780, and A2780ADR cells were grown in RPMI-1640 media with 10% FBS, 100 U/ml penicillin, and 100 μg/ml streptomycin. 5637, 5637R, and MOLM-13 cells were grown in RPMI-1640 media with 20% FBS, 100 U/ml penicillin, and 100 μg/ml streptomycin. All cells were cultured at 37° C. in a humidified incubator. The cells were then incubated with increasing doses of cytarabine or doxorubicin continuously for 72 hours. IC50 values were determined using the CellTiter 96 Aqueous Non-Radioactive Cell Proliferation Assay (Promega). […] As shown, 5637 and 5673R have differential sensitivity to cytarabine, while A2780 and A2780ADR have differential sensitivity to doxorubicin. The leukemic suspension cell lines also have differential sensitivity to these two drugs.

[3] = test system: THP-1; assay: CellTiter 96 Aqueous cell proliferation assay; conditions: Homo sapiens, 72 hr continuous treatment
Source text: as §1

[4] = test system: MV-4-11; assay: CellTiter 96 Aqueous cell proliferation assay; conditions: Homo sapiens, MV4-11, 72 hr continuous treatment
Source text: as §1

[5] = test system: MOLM-13; assay: CellTiter 96 Aqueous cell proliferation assay; conditions: Homo sapiens, 72 hr continuous treatment
Source text: as §1

[6] = test system: A2780; assay: CellTiter 96 Aqueous cell proliferation assay; conditions: Homo sapiens, 72 hr continuous treatment
Source text: as §1

IC50 [2]: 12000 nM
IC50 [3]: 24 nM
IC50 [4]: 3 nM
IC50 [5]: 4 nM
IC50 [6]: 21 nM
Structure (SMILES): COc1cccc2c1C(=O)c1c(O)c3c(c(O)c1C2=O)C[C@@](O)(C(=O)CO)C[C@@H]3O[C@H]1C[C@H](N)[C@H](O)[C@H](C)O1 [doxorubicin]
doxorubicin-DNA adducts in resistant A2780ADR compared to sensitive A2780 [1]: fewer doxorubicine-DNA adducts
